Assay results taken from patent US9539231B2, “Method for treating triple-negative breast cancer using AMPI-109” (The Regents of the University of Colorado, a body corporate, priority 2014, dated 2017).

Assays:
[1] = tested on: MCF-10A; experiment: Apoptosis ELISA assay, 24 hours; format: cell-based, human; conditions: 100 nM
Protocol: (§1) The inventors also examined the ability of AMPI-109 to induce apoptosis in TN breast cancer cells by performing ELISA assays. Various cell lines (MCF10A, MCF-7, BT-20 and MDA-231) were treated with ethanol control (C), paclitaxel (100 nM, (T)), 1,25D (100 nM), (D)), or AMPI-109 (100 nM), (A)) for 24 hours. ELISA assays were then performed. The p values in the figure were determined by T-test. […] Therefore, it can be concluded that AMPI-109 appears to specifically induce apoptosis in TN breast cancer cells.

[2] = tested on: BT-20; experiment: Apoptosis ELISA assay, 24 hours; format: cell-based, human; conditions: 100 nM
Protocol: as §1

[3] = tested on: MDA-231; experiment: Apoptosis ELISA assay, 24 hours; format: cell-based, human; conditions: 100 nM
Protocol: as §1

[4] = tested on: MCF-7; experiment: Apoptosis ELISA assay, 24 hours; format: cell-based, human; conditions: 100 nM
Protocol: as §1

[5] = tested on: BT-474; experiment: MTS growth assay, 3 days treatment; format: cell-based, human; conditions: BT-474, Luminal B, 100 nM
Protocol: (§2) Breast cancer is a very heterogeneous disease consisting of multiple molecular subtypes. In order to examine the antitumorigenic properties of AMPI-109 in human breast cancer cells of various subtypes, a cohort of breast cancer cell lines were treated with AMPI-109 at its IC50 (the dose where 50% of the cells show the desired effects), equimolar 1,25D or ethanol control and cellular growth was quantified. In particular, the cell lines were treated at the approximate IC50 (100 nM) of AMPI-109, 1,25D (100 nM) or ethanol control for 3 days. MTS assays were then performed. The experiment was repeated three times with 6 replicates per experiment.
(§3) The percentage in Table 1 represents growth compared to control treatment. The p values represent significance of difference between 1,25D inhibition and AMPI-109 inhibition of growth. It can be concluded from the data that AMPI-109 inhibits the growth of multiple TN breast cancer subtypes and this inhibition appeared to be almost entirely specific for TN breast cancer cell lines.

[6] = tested on: HCC70; experiment: MTS growth assay, 3 days treatment; format: cell-based, human; conditions: HCC70, TN (BL2), 100 nM
Protocol: as §2, §3

[7] = tested on: MCF7; experiment: MTS growth assay, 3 days treatment; format: cell-based, human; conditions: MCF7, Luminal A, 100 nM
Protocol: as §2, §3

[8] = tested on: SKBR3; experiment: MTS growth assay, 3 days treatment; format: cell-based, human; conditions: SKBR3, HER2, 100 nM
Protocol: as §2, §3

[9] = tested on: MDA-468; experiment: MTS growth assay, 3 days treatment; format: cell-based, human; conditions: MDA-468, TN (BL1), 100 nM
Protocol: as §2, §3

[10] = tested on: MDA-453; experiment: MTS growth assay, 3 days treatment; format: cell-based, human; conditions: MDA-453, HER2, 100 nM
Protocol: as §2, §3

[11] = tested on: BT-20; experiment: MTS growth assay, 3 days treatment; format: cell-based, human; conditions: BT-20, TN (Unclass.), 100 nM
Protocol: as §2, §3

[12] = tested on: MCF10A; experiment: MTS growth assay, 3 days treatment; format: cell-based, human; conditions: Nonmalignant, 100 nM
Protocol: as §2, §3

[13] = tested on: MDA-231; experiment: MTS growth assay, 3 days treatment; format: cell-based, human; conditions: MDA-231, TN (MSL), 100 nM
Protocol: as §2, §3

[14] = tested on: BT-549; experiment: MTS growth assay, 3 days treatment; format: cell-based, human; conditions: BT-549, TN (M), 100 nM
Protocol: as §2, §3

[15] = tested on: SUM149; experiment: MTS growth assay, 3 days treatment; format: cell-based, human; conditions: SUM149, TN (BL2), 100 nM
Protocol: as §2, §3

[16] = tested on: T47D; experiment: MTS growth assay, 3 days treatment; format: cell-based, human; conditions: Luminal A, 100 nM
Protocol: as §2, §3

[17] = tested on: BT-20 cells; experiment: Growth assay in BT-20 cells with VDR shRNA knock down, 72 hours; format: cell-based, human; conditions: p<0.001
From the text: The inventors used shRNAs directed against VDR in BT-20 cells and examined the response after treatment with AMPI-109. […] The non-silencing control is designated as pLKO.

[18] = tested on: BT-20; experiment: PARP cleavage by western blot, 24 hours; format: cell-based, human; conditions: 100 nM
Protocol: (§4) Cleavage of poly (ADP)-ribose polymerase (PARP), a hallmark of apoptosis, was used to further investigate the ability of AMPI-109 to induce apoptosis of TN breast cancer cells. FIG. 2C, wherein PARP cleavage was determined by western blot, summarizes the results of cleaved PARP after treating MCF10A, MCF-7, BT-20 and MDA-231 with ethanol control (C), paclitaxel (100 nM, (T)), 1,25D (100 nM), (D)), or AMPI-109 (100 nM), (A)) for 24 hours. […] Accordingly, the results as described in FIG. 2A, FIG. 2B, and FIG. 2C indicate the capability of AMPI-109 as an agent to induce apoptosis of TN breast cancer cells.

[19] = tested on: MCF10A; experiment: PARP cleavage by western blot, 24 hours; format: cell-based, human; conditions: 100 nM
Protocol: as §4

[20] = tested on: MDA-231; experiment: PARP cleavage by western blot, 24 hours; format: cell-based, human; conditions: 100 nM
Protocol: as §4

[21] = tested on: MCF-7; experiment: PARP cleavage by western blot, 24 hours; format: cell-based, human; conditions: 100 nM
Protocol: as §4

[22] = tested on: human breast cancer cells; experiment: IC50 of AMPI-109 for cellular growth (MTS); format: cell-based; conditions: breast cancer cell lines, read-out: approximate IC50
Protocol: as §2

[23] = tested on: MCF7; experiment: Cell viability by crystal violet staining, 7 days; format: cell-based, human; conditions: MCF7 luminal A, 100 nM
Protocol: (§5) In order to determine the effects of AMPI-109 on cell viability as one possible explanation of the reduction in tumor size, the inventors plated various breast cancer cell lines in 6-well dishes and treated with either ethanol control (CU), vitamin D (1,25D) or AMPI-109. 1,25D and AMPI-109 were administered at 100 nM. The plates were incubated for 7 days and cell viability was assessed by crystal violet staining.

[24] = tested on: MCF-10A; experiment: Cell viability by crystal violet staining, 7 days; format: cell-based, human; conditions: MCF-10A non-malignant, 100 nM
Protocol: as §5

[25] = tested on: BT-20; experiment: Cell viability by crystal violet staining, 7 days; format: cell-based, human; conditions: 100 nM
Protocol: as §5

[26] = tested on: MDA-231; experiment: Cell viability by crystal violet staining, 7 days; format: cell-based, human; conditions: 100 nM
Protocol: as §5

[27] = tested on: patient-derived triple negative breast cancer tumor xenograft; experiment: Patient-derived TNBC tumor xenograft growth inhibition; format: in vivo, NOD-SCID mice; conditions: 1 ug/kg i.p. every other day for three weeks, vs vehicle
From the text: The inventors further examined the ability of AMPI-109 to inhibit the growth of a patient-derived triple negative breast cancer tumor xenograft. A tumor from a person diagnosed with stage 4 triple negative breast cancer was propagated by serial passage through NOD-SCID mice. The tumor was dissected into equal sizes and implanted into the left and right mammary fat pads of 12 NOD-SCID mice. Once the tumors reached 100 mm^3 in size the mice were randomized into vehicle- and AMPI-109-treated arms. A total of 19 tumors grew out (9 for vehicle, and 10 for AMPI-109 treated). Vehicle control or AMPI-109 (1 ug/kg body weight) was administered by i.p. injection every other day for three weeks. Upon completion of the study, the tumors were excised and volume and mass were determined. […] The results were shown in FIG. 1, where * indicates a p value of 0.018, which was determined by T-test.

[28] = tested on: BT-20 cells; experiment: Block of AMPI-109-mediated growth inhibition by RXR antagonist; format: cell-based, human; conditions: doses which blocked VDR-mediated gene expression
From the text: VDR activates gene expression as a heterodimer with the retinoid X receptor (RXR). The inventors thus also tested whether pharmacologic inhibition of the VDR axis with HX531, an RXR antagonist, would block AMPI-109-mediated growth inhibition of BT-20 cells.

[29] = tested on: VDR-mediated gene expression; experiment: VDR-mediated gene expression; format: cell-based

Compound | induction of apoptosis (ELISA) [2] | induction of apoptosis (ELISA) [3] | % Control (growth compared to control treatment) [5] | % Control (growth compared to control treatment) [6] | % Control (growth compared to control treatment) [7] | % Control (growth compared to control treatment) [8] | % Control (growth compared to control treatment) [9] | % Control (growth compared to control treatment) [10] | % Control (growth compared to control treatment) [11] | % Control (growth compared to control treatment) [12] | % Control (growth compared to control treatment) [13] | % Control (growth compared to control treatment) [14] | % Control (growth compared to control treatment) [15] | % Control (growth compared to control treatment) [16] | other results
CC(=O)O[C@H]1C(=O)[C@@]2(C)[C@H]([C@H](OC(=O)c3ccccc3)[C@]3(O)C[C@H](OC(=O)[C@H](O)[C@@H](NC(=O)c4ccccc4)c4ccccc4)C(C)=C1C3(C)C)[C@]1(OC(C)=O)CO[C@@H]1C[C@@H]2O [paclitaxel, reference compound] | induced apoptosis in all cells tested | induced apoptosis in all cells tested | – | – | – | – | – | – | – | – | – | – | – | – | induction of apoptosis (ELISA) [1]: induced apoptosis in all cells tested; induction of apoptosis (ELISA) [4]: induced apoptosis in all cells tested
C=C1/C(=C\C=C2/CCC[C@]3(C)[C@@H]([C@H](C)CCCC(C)(C)O)CC[C@@H]23)C[C@@H](O)C[C@@H]1O [1,25D, reference compound] | – | – | 87% | 83% | 95% | 100% | 86% | 94% | 82% | 102% | 96% | 94% | 92% | 98% | –
C=C1/C(=C\C=C2/CCC[C@]3(C)[C@@H]([C@H](C)CCCC(C)(C)O)CC[C@@H]23)C[C@@H](OC(=O)CBr)C[C@@H]1O [AMPI-109, 1α,25-Dihydroxyvitamin D3-3β-bromoacetate] | strong induction of apoptosis | strong induction of apoptosis | 66% | 49% | 93% | 99% | 39% | 86% | 29% | 99% | 44% | 69% | 39% | 94% | growth inhibition ([17]; BT-20 cells with VDR knocked down (VDR3, VDR8 shRNAs)): equally effective at inhibiting the growth; growth inhibition ([17]; BT-20 control cells (pLKO non-silencing)): equally effective at inhibiting the growth; PARP cleavage (western blot) [18]: promoted PARP cleavage; PARP cleavage (western blot) [19]: only in BT-20 and MDA-231 cells; PARP cleavage (western blot) [20]: promoted PARP cleavage; PARP cleavage (western blot) [21]: only in BT-20 and MDA-231 cells; IC50 [22]: ~100 nM; cell viability (crystal violet staining) [23]: no effect on cell viability; cell viability (crystal violet staining) [24]: no effect on cell viability; cell viability (crystal violet staining) [25]: significant reduction in cell viability; cell viability (crystal violet staining) [26]: significant reduction in cell viability; tumor mass [27]: significant reduction; tumor volume [27]: significant reduction; reduction of the size of the tumors ([27]; p 0.018): approximately 30%
CN1c2ccc([N+](=O)[O-])cc2N=C(c2ccc(C(=O)O)cc2)c2cc3c(cc21)C(C)(C)CCC3(C)C [HX531] | – | – | – | – | – | – | – | – | – | – | – | – | – | – | effect on AMPI-109-mediated growth inhibition [28]: did not inhibit the antiproliferative effects of AMPI-109; effect on VDR-mediated gene expression [29]: blocked VDR-mediated gene expression
